Among the data in ChEMBL document CHEMBL3867434, “Regiospecific Prenylation of Hydroxyxanthones by a Plant Flavonoid Prenyltransferase” (J Nat Prod, 2016) are Activity and Survival values, retold here.

The source made the active and inactive calls. No cut-off for these calls is given here.

Assay [1] in a line: Neuroprotective activity in human SK-N-SH cells assessed as inhibition of glutamate-induced injury by measuring increase in cell viability at 10 uM preincubated for 4 hrs followed by glutamate addition measured after 4 hrs by MTT assay. The assay is classed as functional, cell-based. A general note: Formazan colour is commonly taken as a measure of viable cells.
Assay [2] can be described thus: Neuroprotective activity in human SK-N-SH cells assessed as inhibition of glutamate-induced injury by measuring cell survival at 10 uM preincubated for 4 hrs followed by glutamate addition measured after 4 hrs by MTT assay relative to control. The assay is classed as functional, cell-based.

On to `O=c1c2c(O)cc(O)cc2oc2cc(O)cc(O)c12`, for which the result in assay [1] was Active.

`CC(C)=CCc1c(O)cc2oc3ccc(O)cc3c(=O)c2c1O`: the outcome in assay [1] was Active. The Survival in assay [2] came to 82.9%.

With `Oc1ccc(/C=C/c2cc(O)cc(O)c2)cc1`, in assay [2], the Survival is 79.9%.

With `O=c1c2cc(O)ccc2oc2cc(O)cc(O)c12`, the result in assay [1] was Active.

For the compound `CC(C)=CCc1c(O)cc2oc3cc(O)cc(O)c3c(=O)c2c1O`, in assay [1], the outcome was Active.

Regarding `CC(C)=CCc1c(O)cc2oc3cc(O)c(CC=C(C)C)c(O)c3c(=O)c2c1O`, the outcome in assay [1] was Active.
